Test results as given in patent US20160010068A1, “FUSION POLYNUCLEOTIDES AND FUSION POLYPEPTIDES ASSOCIATED WITH CANCER AND PARTICULARLY MELANOMA AND THEIR USES AS THERAPEUTIC AND DIAGNOSTIC TARGETS” (priority 2013, published 2016).

Legend:
melanoma = details: twice daily; phase I trial; cited from earlier work
PWWP2A-ROS1 fusion [1] = biological target: T1, PWWP2A-ROS1 fusion (Homo sapiens, UniProt P08922); assay: Western blot of phosphorylation in melan-a cells expressing PWWP2A-ROS1 fusion construct; assay type: cell-based, mouse; details: FIG. 3d
T1 construct: exon 1 of PWWP2A is fused with exon 36-43 of ROS1, which contains the tyrosine kinase domain; expressed in transfected cells; host or cells: melan-a cells (immortalized, non-tumorigenic mouse melanocytes), stably transduced with lentivirus (pLenti6.3/TO/V5-Dest)
T1 sequence (P08922 with tags, fused parts or gaps): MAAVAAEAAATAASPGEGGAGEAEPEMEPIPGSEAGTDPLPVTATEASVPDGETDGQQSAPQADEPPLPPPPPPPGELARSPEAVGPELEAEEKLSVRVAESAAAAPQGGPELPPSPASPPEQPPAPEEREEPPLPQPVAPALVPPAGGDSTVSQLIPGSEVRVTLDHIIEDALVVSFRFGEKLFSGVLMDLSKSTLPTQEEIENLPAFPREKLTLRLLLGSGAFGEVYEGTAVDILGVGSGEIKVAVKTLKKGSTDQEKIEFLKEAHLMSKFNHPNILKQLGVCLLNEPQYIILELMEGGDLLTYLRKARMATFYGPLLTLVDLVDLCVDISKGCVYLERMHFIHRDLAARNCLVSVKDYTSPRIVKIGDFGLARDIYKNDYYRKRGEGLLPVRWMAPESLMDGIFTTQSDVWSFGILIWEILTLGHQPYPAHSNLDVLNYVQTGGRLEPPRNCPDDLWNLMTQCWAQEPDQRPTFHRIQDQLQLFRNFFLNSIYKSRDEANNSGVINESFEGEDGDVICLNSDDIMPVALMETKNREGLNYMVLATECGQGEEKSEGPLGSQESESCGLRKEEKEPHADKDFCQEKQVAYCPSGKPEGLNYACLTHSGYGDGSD

PWWP2A-ROS1 fusion [2] = biological target: T1, PWWP2A-ROS1 fusion; assay: Western blot of signaling in melan-a cells expressing the PWWP2A-ROS1 fusion, with crizotinib; assay type: cell-based; details: representative of three independent experiments
Description: FIG. 3 depicts ROS1 fusions. […] Scale bar, […]. Scale bar magnification, 50 mm. […] Scale bar, […]. Scale bar magnification, 50 mm. […] Scale bar, 10 mm. (c) Illustration of the PWWP2A-ROS1 kinase fusion. ROS1 is located on […], and PWWP2A on chromosome 5q33. Owing to genomic rearrangements, exon 1 of PWWP2A is fused with exon 36-43 of ROS1, which contains the tyrosine kinase domain. […] The indicated protein weight markers in kDa are estimated from molecular weight standards.
FIG. 8 depicts full western blots of FIG. 3d. (a) p-ROS1, (b) t-ROS1, (c) p-AKT, (d) t-AKT, (e) p-ERK, (f) t-ERK, (g) p-S6, (h) t-S6, (i) p-SHP2, (j) t-SHP2, (k) Hsp60. All molecular weight standards are indicated in kDa.

Structure (SMILES) | maximum tolerated dose (melanoma) | phosphorylation of ERK (PWWP2A-ROS1 fusion [1]) | phosphorylation of PWWP2A-ROS1, AKT, S6 and SHP2 (PWWP2A-ROS1 fusion [1]) | p-AKT (PWWP2A-ROS1 fusion [2]) | p-S6 (PWWP2A-ROS1 fusion [2]) | p-SHP2 (PWWP2A-ROS1 fusion [2]) | phosphorylation of the chimeric PWWP2A-ROS1 fusion protein (PWWP2A-ROS1 fusion [2])
CCCS(=O)(=O)Nc1ccc(F)c(C(=O)c2c[nH]c3ncc(-c4ccc(Cl)cc4)cc23)c1F [vemurafenib] | 60 mg |  |  |  |  |  | 
C[C@@H](Oc1cc(-c2cnn(C3CCNCC3)c2)cnc1N)c1c(Cl)ccc(F)c1Cl [Crizotinib, crizotinib] |  | not | at least partially inhibited | inhibited at least partially | inhibited at least partially | inhibited at least partially | inhibited at least partially
